Experimental data as given in patent publication US20260285850A1, “SUBSTITUTED OXAZOLIDINONES AND IMIDAZOLINONES AS HERBICIDES” (FMC CORPORATION, priority 2023, published 2026).

Key:
Type in all cases: in vivo
[1] = test system: galium (catchweed bedstraw, Galium aparine); test: Test A postemergence application, visual injury rating 0-100; details: Postemergence, 10 days, 0 is no effect, 100 is complete control
Outline: (§1)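 Plants were grown in a loam soil-sand blend and treated with test chemical in a non-phytotoxic solvent mixture containing surfactant, either sprayed on soil preemergence or applied postemergence to 2-10 cm plants. After 10 days in a greenhouse, injury was scored visually against untreated controls, 0 meaning no effect and 100 complete control.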

[2] = test system: corn (Zea mays); test: as above; details: Postemergence, 10 days, 0 is no effect, 100 is complete control
Outline: as §1

[3] = test system: soybean (Glycine max); test: as above; details: Postemergence, 10 days, 0 is no effect, 100 is complete control
Outline: as §1

[4] = test system: ragweed (common ragweed, Ambrosia artemisiifolia); test: as above; details: Postemergence, 10 days, 0 is no effect, 100 is complete control
Outline: as §1

[5] = test system: oat, wild (wild oat, Avena fatua); test: as above; details: Postemergence, 10 days, 0 is no effect, 100 is complete control
Outline: as §1

[6] = test system: palmer (palmer amaranth, palmer pigweed, Amaranthus palmeri); test: as above; details: Postemergence, 10 days, 0 is no effect, 100 is complete control
Outline: as §1

[7] = test system: ryegrass, Italian (italian ryegrass, Lolium multiflorum); test: as above; details: Postemergence, 10 days, 0 is no effect, 100 is complete control
Outline: as §1

[8] = test system: wheat (Triticum aestivum); test: as above; details: Postemergence, 10 days, 0 is no effect, 100 is complete control
Outline: as §1

[9] = test system: green foxtail (Setaria viridis); test: as above; details: Postemergence, 10 days, 0 is no effect, 100 is complete control
Outline: as §1

[10] = test system: blackgrass (Alopecurus myosuroides); test: as above; details: Postemergence, 10 days, 0 is no effect, 100 is complete control
Outline: as §1

[11] = test system: horseweed (Erigeron canadensis); test: as above; details: Postemergence, 10 days, 0 is no effect, 100 is complete control
Outline: as §1

[12] = test system: kochia (Bassia scoparia); test: as above; details: Postemergence, 10 days, 0 is no effect, 100 is complete control
Outline: as §1

[13] = test system: barnyardgrass (Echinochloa crus-galli); test: as above; details: Postemergence, 10 days, 0 is no effect, 100 is complete control
Outline: as §1

[14] = test system: corn (Zea mays); test: Test A preemergence soil spray, visual injury rating 0-100; details: 10 days, 0 = no effect, 100 = complete control
Outline: as §1

[15] = test system: soybean (Glycine max); test: as above; details: 10 days, 0 = no effect, 100 = complete control
Outline: as §1

[16] = test system: oat, wild (wild oat, Avena fatua); test: as above; details: 10 days, 0 = no effect, 100 = complete control
Outline: as §1

[17] = test system: palmer (palmer amaranth, palmer pigweed, Amaranthus palmeri); test: as above; details: 10 days, 0 = no effect, 100 = complete control
Outline: as §1

[18] = test system: ryegrass, Italian (italian ryegrass, Lolium multiflorum); test: as above; details: 10 days, 0 = no effect, 100 = complete control
Outline: as §1

[19] = test system: wheat (Triticum aestivum); test: as above; details: 10 days, 0 = no effect, 100 = complete control
Outline: as §1

[20] = test system: green foxtail (Setaria viridis); test: as above; details: 10 days, 0 = no effect, 100 = complete control
Outline: as §1

[21] = test system: blackgrass (Alopecurus myosuroides); test: as above; details: 10 days, 0 = no effect, 100 = complete control
Outline: as §1

[22] = test system: kochia (Bassia scoparia); test: as above; details: 10 days, 0 = no effect, 100 = complete control
Outline: as §1

[23] = test system: barnyardgrass (Echinochloa crus-galli); test: as above; details: 10 days, 0 = no effect, 100 = complete control
Outline: as §1

[24] = test system: barnyardgrass (Echinochloa crusgalli); test: Test B flooded paddy test, visual plant response rating 0-100; details: 250 g ai/ha, Flood, applied to paddy water, evaluated after 13 days
Outline: (§2)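 Plants were grown to the 2-leaf stage, then pots were flooded to 3 cm above the soil and test compounds were applied directly into the paddy water. Water depth was held there throughout; after 13 days in a greenhouse, injury was scored visually against untreated controls.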

[25] = test system: rice (Oryza sativa); test: as above; details: 250 g ai/ha, Flood, applied to paddy water, evaluated after 13 days
Outline: as §2

[26] = test system: ducksalad (Heteranthera limosa); test: as above; details: 250 g ai/ha, Flood, applied to paddy water, evaluated after 13 days
Outline: as §2

[27] = test system: sedge, umbrella (small-flower umbrella sedge, Cyperus difformis); test: as above; details: 250 g ai/ha, Flood, applied to paddy water, evaluated after 13 days
Outline: as §2

SMILES: CCCOC(=O)C1C=CC(NC(=O)C2(C)CN(c3cc(F)cc(F)c3)C(=O)O2)C1 (centres unmarked) [Compound 34]
- Galium plant response rating (0 to 100 scale) ([1]; 125 g ai/ha): 80
- Galium plant response rating (0 to 100 scale) ([1]; 500 g ai/ha): 80
- Corn plant response rating (0 to 100 scale) ([2]; 125 g ai/ha): 100
- Corn plant response rating (0 to 100 scale) ([2]; 500 g ai/ha): 100
- Soybean plant response rating (0 to 100 scale) ([3]; 125 g ai/ha): 70
- Soybean plant response rating (0 to 100 scale) ([3]; 500 g ai/ha): 80
- Ragweed plant response rating (0 to 100 scale) ([4]; 125 g ai/ha): 70
- Ragweed plant response rating (0 to 100 scale) ([4]; 500 g ai/ha): 80
- Oat, Wild plant response rating (0 to 100 scale) ([5]; 125 g ai/ha): 100
- Oat, Wild plant response rating (0 to 100 scale) ([5]; 500 g ai/ha): 100
- Amaranth, Palmer / Pigweed, Palmer plant response rating (0 to 100 scale) ([6]; 125 g ai/ha): 80
- Amaranth, Palmer / Pigweed, Palmer plant response rating (0 to 100 scale) ([6]; 500 g ai/ha): 100
- Ryegrass, Italian plant response rating (0 to 100 scale) ([7]; 125 g ai/ha): 80
- Ryegrass, Italian plant response rating (0 to 100 scale) ([7]; 500 g ai/ha): 90
- Wheat plant response rating (0 to 100 scale) ([8]; 125 g ai/ha): 70
- Wheat plant response rating (0 to 100 scale) ([8]; 500 g ai/ha): 80
- Foxtail, Green plant response rating (0 to 100 scale) ([9]; 125 g ai/ha): 90
- Foxtail, Green plant response rating (0 to 100 scale) ([9]; 500 g ai/ha): 90
- Blackgrass plant response rating (0 to 100 scale) ([10]; 125 g ai/ha): 90
- Blackgrass plant response rating (0 to 100 scale) ([10]; 500 g ai/ha): 100
- Horseweed plant response rating (0 to 100 scale) ([11]; 125 g ai/ha): 90
- Horseweed plant response rating (0 to 100 scale) ([11]; 500 g ai/ha): 90
- Kochia plant response rating (0 to 100 scale) ([12]; 125 g ai/ha): 70
- Kochia plant response rating (0 to 100 scale) ([12]; 500 g ai/ha): 70
- Barnyardgrass plant response rating (0 to 100 scale) ([13]; 125 g ai/ha): 100
- Barnyardgrass plant response rating (0 to 100 scale) ([13]; 500 g ai/ha): 100
- Corn plant response rating (0 to 100 scale) ([14]; 125 g ai/ha): 90
- Corn plant response rating (0 to 100 scale) ([14]; 500 g ai/ha): 100
- Soybean plant response rating (0 to 100 scale) ([15]; 125 g ai/ha): 70
- Soybean plant response rating (0 to 100 scale) ([15]; 500 g ai/ha): 80
- Oat, Wild plant response rating (0 to 100 scale) ([16]; 125 g ai/ha): 90
- Oat, Wild plant response rating (0 to 100 scale) ([16]; 500 g ai/ha): 90
- Amaranth, Palmer plant response rating (0 to 100 scale) ([17]; 125 g ai/ha): 90
- Amaranth, Palmer plant response rating (0 to 100 scale) ([17]; 500 g ai/ha): 100
- Ryegrass, Italian plant response rating (0 to 100 scale) ([18]; 125 g ai/ha): 100
- Ryegrass, Italian plant response rating (0 to 100 scale) ([18]; 500 g ai/ha): 100
- Wheat plant response rating (0 to 100 scale) ([19]; 125 g ai/ha): 90
- Wheat plant response rating (0 to 100 scale) ([19]; 500 g ai/ha): 100
- Foxtail, Green plant response rating (0 to 100 scale) ([20]; 125 g ai/ha): 100
- Foxtail, Green plant response rating (0 to 100 scale) ([20]; 500 g ai/ha): 100
- Blackgrass plant response rating (0 to 100 scale) ([21]; 125 g ai/ha): 90
- Blackgrass plant response rating (0 to 100 scale) ([21]; 500 g ai/ha): 100
- Kochia plant response rating (0 to 100 scale) ([22]; 125 g ai/ha): 90
- Kochia plant response rating (0 to 100 scale) ([22]; 500 g ai/ha): 90
- Barnyardgrass plant response rating (0 to 100 scale) ([23]; 125 g ai/ha): 100
- Barnyardgrass plant response rating (0 to 100 scale) ([23]; 500 g ai/ha): 100
- Plant response rating, Barnyardgrass (0 to 100 scale, 0 is no effect and 100 is complete control) [24]: 90
- Plant response rating, Rice (0 to 100 scale, 0 is no effect and 100 is complete control) [25]: 10
- Plant response rating, Ducksalad (0 to 100 scale, 0 is no effect and 100 is complete control) [26]: 75
- Plant response rating, Sedge, Umbrella (0 to 100 scale, 0 is no effect and 100 is complete control) [27]: 75
